Literature values in patent publication US5525634A, “Colonic drug delivery system” (priority 1994, dated 1996).

Legend:
[1] = small intestinal mucosa / esterases
morphine-dependent rats = details: for time to diarrhea: direct colonic administration; for time to diarrhea / time to diarrhea, withdrawal behavior and tail skin temperature response: morphine-dependent rats; for time to diarrhea, withdrawal behavior and tail skin temperature response: oral administration

| Structure (SMILES) | passage through / cleavage in the small intestine [1] | time to diarrhea (morphine-dependent rats) | activity on subcutaneous administration (morphine-dependent rats) | time to diarrhea, withdrawal behavior and tail skin temperature response (morphine-dependent rats) |
| --- | --- | --- | --- | --- |
| CC(=O)Oc1ccc(C(c2ccc(OC(C)=O)cc2)c2ccccn2)cc1 [bisacodyl] | readily cleaved by the esterases in the small intestine | – | – | – |
| C=C1CCC2(O)C3Cc4ccc(OC5OC(C(=O)O)C(O)C(O)C5O)c5c4C2(CCN3CC2CC2)C1O5 (stereo not shown) [nalmefene glucuronide] | – | 5 to 8 min | inactive | – |
| C=C1CC[C@@]2(O)[C@H]3Cc4ccc(O)c5c4[C@@]2(CCN3CC2CC2)[C@H]1O5 [nalmefene] | – | – | – | ≤ 15 min |
| C=CCN1CC[C@]23c4c5ccc(O[C@@H]6O[C@H](C(=O)O)[C@@H](O)[C@H](O)[C@H]6O)c4O[C@H]2C(=O)CC[C@@]3(O)[C@H]1C5 [naloxone glucuronide] | – | 5 to 8 min | inactive | – |
| C=CCN1CC[C@]23c4c5ccc(O)c4O[C@H]2C(=O)CC[C@@]3(O)[C@H]1C5 [naloxone] | – | – | – | ≤ 15 min |
